From the supplement of paper PMC10883282

Key:
Test in all cases: relative viability vs DMSO control (72 h) (fraction); higher = more viable cells
[1] = tested on: A204
Outline: (§1)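 Serially diluted compound, 2.5 µl from source plates spanning 10 mM to 0.0002 mM, was added 24 h after sarcoma cell lines were seeded in 384-well plates at densities targeting 80–90% confluence. Plates then sat 72 h at 37 °C, 5% CO2, with 0.1% DMSO vehicle and a 5 µM positive control. Relative viability came from ATPLite as percent growth, averaged over up to triplicate wells, and was rescaled with 1 as full and 0 as none.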

[2] = tested on: SW982
Outline: as §1

[3] = tested on: SW1353
Outline: as §1

[4] = tested on: G401
Outline: as §1

[5] = tested on: SW872
Outline: as §1

[6] = tested on: SK-LMS-1
Outline: as §1

[7] = tested on: SK-ES-1
Outline: as §1

[8] = tested on: MES-SA
Outline: as §1

[9] = tested on: SYO-1
Outline: as §1

[10] = tested on: KHOS-240S
Outline: as §1

[11] = tested on: SW684
Outline: as §1

[12] = tested on: HS729
Outline: as §1

CCC(=O)N1CC[C@H](Nc2ncnc3c2CN(c2cnc(OC)c(C(F)(F)F)c2)CC3)C1 [Leniolisib]
Settings	relative viability
[1], 0.00017 µM	1.04
[1], 0.00051 µM	1.06
[1], 0.00152 µM	1
[1], 0.00457 µM	1.04
[1], 0.01372 µM	1.03
[1], 0.04115 µM	1.02
[1], 0.1235 µM	1.01
[1], 0.3704 µM	0.986
[1], 1.111 µM	0.897
[1], 3.333 µM	0.768
[1], 10 µM	0.579
[2], 0.00017 µM	1.02
[2], 0.00051 µM	1.05
[2], 0.00152 µM	1.05
[2], 0.00457 µM	1.05
[2], 0.01372 µM	1.06
[2], 0.04115 µM	1.06
[2], 0.1235 µM	1.02
[2], 0.3704 µM	1.02
[2], 1.111 µM	0.985
[2], 3.333 µM	0.836
[2], 10 µM	0.678
[3], 0.00017 µM	1.02
[3], 0.00051 µM	1.04
[3], 0.00152 µM	0.985
[3], 0.00457 µM	0.999
[3], 0.01372 µM	0.97
[3], 0.04115 µM	0.9439
[3], 0.1235 µM	0.953
[3], 0.3704 µM	0.931
[3], 1.111 µM	0.885
[3], 3.333 µM	0.826
[3], 10 µM	0.692
[4], 0.00017 µM	1.02
[4], 0.00051 µM	1
[4], 0.00152 µM	1.01
[4], 0.00457 µM	1.01
[4], 0.01372 µM	1.02
[4], 0.04115 µM	0.973
[4], 0.1235 µM	0.947
[4], 0.3704 µM	0.936
[4], 1.111 µM	0.868
[4], 3.333 µM	0.835
[4], 10 µM	0.689
[5], 0.00017 µM	1.1
[5], 0.00051 µM	1.09
[5], 0.00152 µM	1.07
[5], 0.00457 µM	1.06
[5], 0.01372 µM	1.06
[5], 0.04115 µM	1.03
[5], 0.1235 µM	1.03
[5], 0.3704 µM	1.03
[5], 1.111 µM	0.951
[5], 3.333 µM	0.907
[5], 10 µM	0.688
[6], 0.00017 µM	1.11
[6], 0.00051 µM	1.07
[6], 0.00152 µM	1.1
[6], 0.00457 µM	1.08
[6], 0.01372 µM	1.05
[6], 0.04115 µM	1.04
[6], 0.1235 µM	1.06
[6], 0.3704 µM	0.998
[6], 1.111 µM	0.939
[6], 3.333 µM	0.827
[6], 10 µM	0.712
[7], 0.00017 µM	1.04
[7], 0.00051 µM	1.02
[7], 0.00152 µM	1.07
[7], 0.00457 µM	1.02
[7], 0.01372 µM	1.04
[7], 0.04115 µM	1.05
[7], 0.1235 µM	1.01
[7], 0.3704 µM	1
[7], 1.111 µM	0.999
[7], 3.333 µM	0.898
[7], 10 µM	0.741
[8], 0.00017 µM	0.966
[8], 0.00051 µM	0.94
[8], 0.00152 µM	0.932
[8], 0.00457 µM	0.934
[8], 0.01372 µM	0.936
[8], 0.04115 µM	0.906
[8], 0.1235 µM	0.922
[8], 0.3704 µM	0.895
[8], 1.111 µM	0.8678
[8], 3.333 µM	0.786
[8], 10 µM	0.585
[9], 0.00017 µM	1.03
[9], 0.00051 µM	0.999
[9], 0.00152 µM	0.984
[9], 0.00457 µM	0.965
[9], 0.01372 µM	0.947
[9], 0.04115 µM	0.949
[9], 0.1235 µM	0.933
[9], 0.3704 µM	0.886
[9], 1.111 µM	0.875
[9], 3.333 µM	0.816
[9], 10 µM	0.724
[10], 0.00017 µM	1.03
[10], 0.00051 µM	1.05
[10], 0.00152 µM	1.05
[10], 0.00457 µM	1.06
[10], 0.01372 µM	1.05
[10], 0.04115 µM	1.02
[10], 0.1235 µM	1.017
[10], 0.3704 µM	0.997
[10], 1.111 µM	0.975
[10], 3.333 µM	0.9
[10], 10 µM	0.8026
[11], 0.00017 µM	1.091
[11], 0.00051 µM	1.14
[11], 0.00152 µM	1.14
[11], 0.00457 µM	1.14
[11], 0.01372 µM	1.15
[11], 0.04115 µM	1.03
[11], 0.1235 µM	0.912
[11], 0.3704 µM	0.793
[11], 1.111 µM	0.742
[11], 3.333 µM	0.674
[11], 10 µM	0.548
[12], 0.00017 µM	1.07
[12], 0.00051 µM	1.02
[12], 0.00152 µM	0.964
[12], 0.00457 µM	0.982
[12], 0.01372 µM	0.965
[12], 0.04115 µM	0.95
[12], 0.1235 µM	0.947
[12], 0.3704 µM	0.992
[12], 1.111 µM	0.838
[12], 3.333 µM	0.82
[12], 10 µM	0.675
